Assay [1] relates to IL-2 in activated CD4+ human T-cells. In words: IL-2 inhibition in supernatants from activated CD4+ human T-cells (cisbio HTRF). In kind it is cell-based. The settings on record: T-cell; geometric mean of count n; CD3/CD28-expanded human CD4+ T cells stimulated with ImmunoCult, 20 to 24 hrs. The procedure: IL-2-Inhibition Activity, IC50 (uM)
IL-2 inhibition activity in supernatants from activated CD4+ human T-cells was determined by measuring the effect of a test compound on the activity using the cisbio HTRF™ technology.
Human CD4+ T cells were activated with CD3/CD28 for 3 days and expanded for an additional 4-6 days (7 to 9 days total). On day 0, frozen CD4+ T cells were thawed, treated with CD3/CD28 Dynabeads, and incubated at 37° C./5% CO2. On day 3, the beads were removed, and the cells were diluted to 5×10^5 cells/cm^2, placed in G-Rex10 flask, and incubated at 37° C./5% CO2. On day 7 to day 9 the cells were removed from the G-Rex flasks, counted and diluted back to 1×10^6 cells/ml in standard tissue culture flask.
The expanded CD4+ T-cells were centrifuged at 300×g for 10 minutes and resuspended to 0.5 million cells per ml (30,000 cells/well). 60 μl of CD4+ T cells were added per well to a 384 well plate containing 0.1 μL of varying concentrations of test compound in DMSO. The plates were incubated for 15 min at 37° C./5% CO2. 20 μl of diluted ImmunoCult™ ([…] Technologies, 1:12.5 in T cell assay media) were added to all wells of the plate (1:50 final assay concentration). The plates were incubated for an additional 20 to 24 hrs at 37° C./5% CO2. The plates were centrifuged at 300×g for 10 minutes. 16 μL of supernatant was removed and combined with 4 μl of IL-2 HTRF Abs. (cisbio kit). Plates were incubated for 3 hours at RT and read with an EnVision plate reader at 665 nm and 615 nm wavelengths.

Assay [2] has as its target Tropomyosin receptor kinase A (TRKA, NTRK1) (Homo sapiens (Human), UniProt P04629). In words: TRKA (NTRK1) enzyme Z'-LYTE assay. In kind it is biochemical. The settings on record: arithmetic mean of count n; test compound 1 uM, ATP 1 mM. The procedure: Tropomyosin Receptor Kinase a (TRKA) Activity, % Inhibition
TRKA, also known as neurotrophic tyrosine kinase receptor type 1 (NTKR1) activity was determined by measuring the effect of a test compound on the activity against the NTRK1 enzyme using the ThermoFisher Z'-LYTE Assay fluorescence-based coupled enzyme format (www.thermofisher.com/selectscreen). […] The resulting effect value for the tested compound was compared to the assay controls to determine the % inhibition (%).

Tropomyosin receptor kinase A (TRKA, NTRK1), sequence (P04629 33-796): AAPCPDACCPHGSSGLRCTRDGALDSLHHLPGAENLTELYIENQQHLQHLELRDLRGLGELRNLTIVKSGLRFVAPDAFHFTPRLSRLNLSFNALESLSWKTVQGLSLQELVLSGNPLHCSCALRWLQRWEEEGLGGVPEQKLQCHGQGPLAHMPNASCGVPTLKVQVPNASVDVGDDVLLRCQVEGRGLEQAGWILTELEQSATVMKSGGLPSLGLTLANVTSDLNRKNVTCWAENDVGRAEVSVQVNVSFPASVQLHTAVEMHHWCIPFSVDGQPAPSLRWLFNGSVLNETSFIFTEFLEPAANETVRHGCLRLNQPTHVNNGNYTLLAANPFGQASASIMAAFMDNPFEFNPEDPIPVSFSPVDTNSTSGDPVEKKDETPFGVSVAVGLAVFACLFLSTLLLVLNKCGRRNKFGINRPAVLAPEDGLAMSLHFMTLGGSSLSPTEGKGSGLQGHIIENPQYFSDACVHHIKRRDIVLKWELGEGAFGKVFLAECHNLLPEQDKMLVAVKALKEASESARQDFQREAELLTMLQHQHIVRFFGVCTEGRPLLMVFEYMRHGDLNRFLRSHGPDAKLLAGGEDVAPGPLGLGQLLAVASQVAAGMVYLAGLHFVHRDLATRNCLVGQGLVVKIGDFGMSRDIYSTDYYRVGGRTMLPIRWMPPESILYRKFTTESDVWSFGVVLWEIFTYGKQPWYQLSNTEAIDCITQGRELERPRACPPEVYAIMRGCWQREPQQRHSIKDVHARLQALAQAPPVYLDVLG

What is called IC50 is the concentration needed to halve the response being measured. Read a low IC50 as greater potency. For orientation: inhibition means the drop in the measured response relative to a control, in per cent. `CCN(C(=O)[C@H](C)N1CCOCC1)c1cc2nc(-c3n[nH]c4c3C[C@@H]3C[C@]3(C)C4)[nH]c2cc1C` [Example 6, (S)—N-ethyl-N-(6-methyl-2-((4aS,5aR)-5a-methyl-1,4,4a,5,5a,6-hexahydrocyclopropa[f]indazol-3-yl)-1H-benzo[d]imidazol-5-yl)-2-morpholinopropanamide] displayed a half-maximal inhibitory concentration (IC50) in assay [1] of 0.101 µM. Moreover, the inhibition at 1 µM in assay [2] is 102%.

Turning to `CN(C(=O)CC1CCOCC1)c1ccc2[nH]c(-c3n[nH]c4c3C[C@@H]3C[C@]3(C)C4)nc2c1` [Example 10, N-methyl-N-(2-((4aS,5aR)-5a-methyl-1,4,4a,5,5a,6-hexahydrocyclopropa[f]indazol-3-yl)-1H-benzo[d]imidazol-5-yl)-2-(tetrahydro-2H-pyran-4-yl)acetamide], the IC50 in assay [1] came out at 0.067 µM. Also, in assay [2], the inhibition at 1 µM was determined as 104%.

The compound `C[C@@H](C(=O)N(C)c1cc(F)c2[nH]c(-c3n[nH]c4c3C[C@@H]3C[C@]3(C)C4)nc2c1)C1CCOCC1` [Example 12, (R)—N-(7-fluoro-2-((4aS,5aR)-5a-methyl-1,4,4a,5,5a,6-hexahydrocyclopropa[f]indazol-3-yl)-1H-benzo[d]imidazol-5-yl)-N-methyl-2-(tetrahydro-2H-pyran-4-yl)propanamide] yielded an IC50 in assay [1] of 0.025 µM. Moreover, the inhibition at 1 µM in assay [2] amounted to 94%.

In assay [1], `C[C@@H](C(=O)N(C)c1ccc2[nH]c(-c3n[nH]c4c3C[C@@H]3C(F)(F)[C@]3(C)C4)nc2c1)N1CCOCC1` [Example 13, (S)—N-(2-((4aS,5aR)-5,5-difluoro-5a-methyl-1,4,4a,5,5a,6-hexahydrocyclopropa[f]indazol-3-yl)-1H-benzo[d]imidazol-5-yl)-N-methyl-2-morpholinopropanamide] showed an IC50 of 0.003 µM. In assay [2], the inhibition at 1 µM stood at 99%.

Take `C[C@@H](C(=O)N(C)c1ccc2[nH]c(-c3n[nH]c4c3C[C@@H]3C[C@]3(C)C4)nc2c1)N1CCOCC1` [Example 14, (S)—N-methyl-N-(2-((4aS,5aR)-5a-methyl-1,4,4a,5,5a,6-hexahydrocyclopropa[f]indazol-3-yl)-1H-benzo[d]imidazol-5-yl)-2-morpholinopropanamide]: in assay [1], 0.042 µM corresponded to half-maximal inhibition (IC50). The inhibition at 1 µM in assay [2] was 92%.

Compound `C[C@@H](C(=O)N(C)c1cc(F)c2[nH]c(-c3n[nH]c4c3C[C@@H]3C[C@]3(C)C4)nc2c1)N1CCOCC1` [Example 15, (S)—N-(7-fluoro-2-((4aS,5aR)-5a-methyl-1,4,4a,5,5a,6-hexahydrocyclopropa[f]indazol-3-yl)-1H-benzo[d]imidazol-5-yl)-N-methyl-2-morpholinopropanamide] had an IC50 in assay [1] of 0.042 µM. For the same compound, the inhibition at 1 µM in assay [2] worked out at 107%.

As for `CCN(C(=O)[C@H](C)N1CCOCC1)c1cc(F)c2[nH]c(-c3n[nH]c4c3C[C@@H]3C[C@]3(C)C4)nc2c1` [Example 16, (S)—N-ethyl-N-(7-fluoro-2-((4aS,5aR)-5a-methyl-1,4,4a,5,5a,6-hexahydrocyclopropa[f]indazol-3-yl)-1H-benzo[d]imidazol-5-yl)-2-morpholinopropanamide], the IC50 in assay [1] is 0.065 µM. In addition, the inhibition at 1 µM in assay [2] came out at 116%.

`COc1cc2[nH]c(-c3n[nH]c4c3C[C@@H]3C[C@]3(C)C4)nc2cc1N(C)C(=O)[C@H](C)N1CCOCC1` [Example 19, (S)—N-(6-methoxy-2-((4aS,5aR)-5a-methyl-1,4,4a,5,5a,6-hexahydrocyclopropa[f]indazol-3-yl)-1H-benzo[d]imidazol-5-yl)-N-methyl-2-morpholinopropanamide] returned a concentration for half-maximal inhibition (IC50) in assay [1] of 0.057 µM. Moreover, the inhibition at 1 µM in assay [2] is 98%.

As for `C[C@@H](C(=O)N(C)c1cc2nc(-c3n[nH]c4c3C[C@@H]3C[C@]3(C)C4)[nH]c2cc1Br)N1CCOCC1` [Example 20, (S)—N-(6-bromo-2-((4aS,5aR)-5a-methyl-1,4,4a,5,5a,6-hexahydrocyclopropa[f]indazol-3-yl)-1H-benzo[d]imidazol-5-yl)-N-methyl-2-morpholinopropanamide], 0.053 µM corresponded to half-maximal inhibition in assay [1] (IC50). Besides, in assay [2], the inhibition at 1 µM was found to be 98%.

Take `C[C@@H](C(=O)N(C)c1cc2nc(-c3n[nH]c4c3C[C@@H]3C[C@]3(C)C4)[nH]c2cc1C#N)N1CCOCC1` [Example 21, (S)—N-(6-cyano-2-((4aS,5aR)-5a-methyl-1,4,4a,5,5a,6-hexahydrocyclopropa[f]indazol-3-yl)-1H-benzo[d]imidazol-5-yl)-N-methyl-2-morpholinopropanamide]: the IC50 in assay [1] is 0.098 µM. For the same compound, the inhibition at 1 µM in assay [2] was 91%.

In assay [1], `C[C@@H](C(=O)N(C)c1cc2nc(-c3n[nH]c4c3C[C@@H]3C[C@]3(C)C4)[nH]c2c(F)c1F)N1CCOCC1` [Example 24, (S)—N-(6,7-difluoro-2-((4aS,5aR)-5a-methyl-1,4,4a,5,5a,6-hexahydrocyclopropa[f]indazol-3-yl)-1H-benzo[d]imidazol-5-yl)-N-methyl-2-morpholinopropanamide] had a concentration for half-maximal inhibition (IC50) of 0.106 µM. Further, in assay [2], the inhibition at 1 µM was found to be 105%.

In the case of `CCN(C(=O)[C@H](C)N1CCOCC1)c1cc2nc(-c3n[nH]c4c3C[C@@H]3C[C@]3(C)C4)[nH]c2c(F)c1F` [Example 25, (S)—N-(6,7-difluoro-2-((4aS,5aR)-5a-methyl-1,4,4a,5,5a,6-hexahydrocyclopropa[f]indazol-3-yl)-1H-benzo[d]imidazol-5-yl)-N-ethyl-2-morpholinopropanamide], it took 0.101 µM to reach half-maximal inhibition in assay [1] (IC50). Also, the inhibition at 1 µM in assay [2] amounted to 101%.

In assay [1], `Cc1cc2[nH]c(-c3n[nH]c4c3C[C@@H]3C[C@]3(C)C4)nc2cc1N(C)C(=O)CN1CCO[C@H](CO)C1` [Example 26, 2-((S)-2-(hydroxymethyl)morpholino)-N-methyl-N-(6-methyl-2-((4aS,5aR)-5a-methyl-1,4,4a,5,5a,6-hexahydrocyclopropa[f]indazol-3-yl)-1H-benzo[d]imidazol-5-yl)acetamide] yielded an IC50 of 0.212 µM. For the same compound, in assay [2], the inhibition at 1 µM was 99%.

Take `Cc1cc2[nH]c(-c3n[nH]c4c3C[C@@H]3C[C@]3(C)C4)nc2cc1N(C)C(=O)CN1CCO[C@@H](C)C1` [Example 31, N-Methyl-N-(6-methyl-2-((4aS,5aR)-5a-methyl-1,4,4a,5,5a,6-hexahydrocyclopropa[f]indazol-3-yl)-1H-benzo[d]imidazol-5-yl)-2-((S)-2-methylmorpholino)acetamide]: the half-maximal inhibitory concentration (IC50) in assay [1] stood at 0.075 µM. For the same compound, in assay [2], the inhibition at 1 µM worked out at 99%.

As for `Cc1cc2[nH]c(-c3n[nH]c4c3C[C@@H]3C[C@]3(C)C4)nc2cc1N(C)C(=O)CN1C[C@@H](C)O[C@H](C)C1` [Example 32, 2-((2R,6R)-2,6-Dimethylmorpholino)-N-methyl-N-(6-methyl-2-((4aS,5aR)-5a-methyl-1,4,4a,5,5a,6-hexahydrocyclopropa[f]indazol-3-yl)-1H-benzo[d]imidazol-5-yl)acetamide], the IC50 in assay [1] was determined as 0.083 µM. The inhibition at 1 µM in assay [2] is 99%.

In assay [1], `Cc1cc2[nH]c(-c3n[nH]c4c3C[C@@H]3C[C@]3(C)C4)nc2cc1N(C)C(=O)CN1CCOCC1` [Example 34, N-Methyl-N-(6-methyl-2-((4aS,5aR)-5a-methyl-1,4,4a,5,5a,6-hexahydrocyclopropa[f]indazol-3-yl)-1H-benzo[d]imidazol-5-yl)-2-morpholinoacetamide] displayed a half-maximal inhibitory concentration (IC50) of 0.103 µM. For the same compound, the inhibition at 1 µM in assay [2] amounted to 98%.

The compound `C[C@@H](C(=O)N(C)c1cc(Br)c2[nH]c(-c3n[nH]c4c3C[C@@H]3C[C@]3(C)C4)nc2c1)N1CCOCC1` [Example 37, (S)—N-(7-bromo-2-((4aS,5aR)-5a-methyl-1,4,4a,5,5a,6-hexahydrocyclopropa[f]indazol-3-yl)-1H-benzo[d]imidazol-5-yl)-N-methyl-2-morpholinopropanamide] displayed an IC50 in assay [1] of 0.13 µM. The inhibition at 1 µM in assay [2] turned out to be 96%.

`C[C@@H](C(=O)N(C)c1cc(C#N)c2[nH]c(-c3n[nH]c4c3C[C@@H]3C[C@]3(C)C4)nc2c1)N1CCOCC1` [Example 38, (S)—N-(7-cyano-2-((4aS,5aR)-5a-methyl-1,4,4a,5,5a,6-hexahydrocyclopropa[f]indazol-3-yl)-1H-benzo[d]imidazol-5-yl)-N-methyl-2-morpholinopropanamide]: the IC50 in assay [1] was 0.085 µM. Besides, in assay [2], the inhibition at 1 µM was 96%.

The compound `COc1cc(N(C)C(=O)[C@H](C)N2CCOCC2)cc2nc(-c3n[nH]c4c3C[C@@H]3C[C@]3(C)C4)[nH]c12` [Example 40, (S)—N-(7-methoxy-2-((4aS,5aR)-5a-methyl-1,4,4a,5,5a,6-hexahydrocyclopropa[f]indazol-3-yl)-1H-benzo[d]imidazol-5-yl)-N-methyl-2-morpholinopropanamide] yielded an IC50 in assay [1] of 0.103 µM. In assay [2], the inhibition at 1 µM is 96%.

Source of the values: patent US11661419B2, “Benzimidazole derivative compounds and uses thereof” (Pfizer Inc., priority 2019, dated 2023).
